Test results published in patent US6248765A, “Imidazole derivatives as histamine receptor H3 (ANT) agonists” (priority 1995, dated 2001).
Structures can show the parent of a compound that is named as a salt. Where two headings read alike, the source gives them in different places.

Legend:
[1] = tested on: cerebral tele-methylhistamine; assay: antagonist effect in vivo: change in the level of cerebral tele-methylhistamine in mice; settings: Mus musculus, po, 1.5 h, read-out: Change in the level of cerebral tele-methylhistamine (relative to controls)
Description: Results are collated in Tables II and III below:
These various compounds were administered at a dose of 10 mg/kg p.o., and the mice sacrificed 90 min later.

histamine H3 receptor [2] = target: T1, histamine H3 receptor (Rattus norvegicus, UniProt Q9QYN8); assay: H3 agonist effect: inhibition of [3H]histamine release from synaptosomes of rat cerebral cortex; format: biochemical; settings: for Emax: maximum inhibition relative to that of exogenous histamine or (R)-alpha-methylhistamine, read-out: Intrinsic activity; for EC50: rat cerebral cortex synaptosomes, inhibition of [3H]histamine release, read-out: EC50 (50% effective concentration of partial agonists)
T1 construct: synthesized from [^3 H]histidine by synaptosomes of rat cerebral cortex; from tissue; host or cells: rat cerebral cortex synaptosomes
T1 sequence (Q9QYN8 whole entry): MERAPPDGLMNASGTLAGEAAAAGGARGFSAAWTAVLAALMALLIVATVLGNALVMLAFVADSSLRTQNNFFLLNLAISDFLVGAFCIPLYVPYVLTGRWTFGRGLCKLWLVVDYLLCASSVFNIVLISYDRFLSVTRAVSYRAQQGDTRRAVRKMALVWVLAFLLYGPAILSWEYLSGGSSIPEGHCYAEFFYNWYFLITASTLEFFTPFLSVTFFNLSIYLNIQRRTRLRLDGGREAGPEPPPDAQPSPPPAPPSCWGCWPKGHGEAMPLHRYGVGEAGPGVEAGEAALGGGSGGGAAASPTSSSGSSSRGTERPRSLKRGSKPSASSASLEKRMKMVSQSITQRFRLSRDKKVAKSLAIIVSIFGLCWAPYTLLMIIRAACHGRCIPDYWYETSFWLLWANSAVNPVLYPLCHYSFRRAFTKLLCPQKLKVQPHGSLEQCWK
Description: The partial agonist effect of the compounds is evaluated by comparison of the maximum inhibition which they induce relative to the maximum inhibition induced by exogenous histamine or [R]-α-methylhistamine; the ratio of these two values giving the intrinsic activity of the compound with respect to the system.

[3] = tested on: cerebral tele-methylhistamine; assay: agonist effect in vivo: change in the level of cerebral tele-methylhistamine in mice; settings: for Change in the level of cerebral tele-methylhistamine (relative to controls): H3 partial agonists, mice, 10 mg/kg p.o., 90 min
Description: The effect of a partial agonist in vivo is characterized by the fact that the maximum reduction in the level of tele-methylhistamine which it induces at high dose is smaller than the reduction induced by a reference H3 agonist.
These various compounds were administered at a dose of 10 mg/kg p.o. and the mice sacrificed 90 min later.

histamine H3 receptor [4] = target: T1, histamine H3 receptor; assay: H3 antagonist power: reversal of (R)-alpha-methylhistamine-induced inhibition of [3H]histamine release from synaptosomes of rat cerebral cortex; format: biochemical; settings: read-out: Ki (apparent dissociation constant as histamine antagonist at the H3 receptors)
plasma extravasation = plasma extravasation induced in rats under the influence of capsaicin (tissue level of Evans blue); format: in vivo; settings: capsaicin 90 μg/kg i.v.
From the text: In contrast, we have discovered that measurement of the activity of the cerebral histaminic neurons in vivo, reflected by the level of tele-methylhistamine, a characteristic metabolite of released histamine, constitutes a more sensitive test of agonist activity. In effect, compounds displaying an intrinsic activity ≤25% in vitro cause, in vivo, a maximum or virtually maximum fall in the level of the tele-methylhistamine. Another sensitive test of H3 agonist activity, in this instance in relation to peripheral organs, consists in measuring the plasma extravasation induced in rats under the influence of capsaicin (90 μg/kg i.v.) and determined by measuring the tissue level of Evans blue, a dye administered at the same time as capsaicin, namely 5 min before infusion and sacrifice (Saria et al., Naunyn-Schmiedeberg's Arch. Pharmacol. 1983, 324: 212).

[5] = H3 antagonists, mice, 10 mg/kg p.o., 90 min

CCCN(CCC)C(=O)OCCCc1c[nH]cn1 [Example 39, 3-(1H-Imidazol-4-yl)propyl-N,N-dipropyl carbamate]
change in vivo at 10 mg/kg [1, 5]: 84%

CC(C)(C)CNC(=O)OCCCc1c[nH]cn1 [Example 111, N-(2,2-Dimethylpropyl)-3-(1H-imidazol-4-yl)propyl carbamate]
functional class at the histamine H3 receptors (agonists) (histamine H3 receptor [2]; in words): agonists or partial agonists
Change in the level of cerebral tele-methylhistamine (relative to controls) [3]: -34%

Cc1ccc(OCCc2c[nH]cn2)cc1 [Example 160, 4-[2-(4-Methylphenoxy)ethyl]-1H-imidazole oxalate]
change in vivo at 10 mg/kg [1, 5]: 95%

CCCCCCCOCCCc1c[nH]cn1 [Example 64, 3-(1H-Imidazol-4-yl)propyl heptyl ether]
Ki (histamine H3 receptor [4]): 16 nM

Cc1cc(C)cc(NC(=O)OCCCc2c[nH]cn2)c1 [Example 115, N-(3,5-Dimethylphenyl)-3-(1H-imidazol-4-yl)propyl carbamate]
Ki (histamine H3 receptor [4]): 44 nM

c1nc(CCCOCCC2CC3CCC2C3)c[nH]1 (centres unmarked) [Example 61, 2-(Bicyclo[2.2.1]hept-2-yl)ethyl 3-(1H-imidazol-4-yl)propyl ether]
Ki (histamine H3 receptor [4]): 0.5 nM

CSc1ccc(OCCCc2c[nH]cn2)cc1 [Example 166, 4-[3-(4-Thiomethylphenoxy)propyl]-1H-imidazole oxalate]
Ki (histamine H3 receptor [4]): 3 nM

FC(F)(F)c1cccc(OCCCc2c[nH]cn2)c1 [Example 8, 4-[3-(3-Trifluoramethylphenoxy)propyl]-1H-imidazole]
Emax (histamine H3 receptor [2]; in vitro): 40%
EC50 (histamine H3 receptor [2]): 100 nM
Change in the level of cerebral tele-methylhistamine (relative to controls) [3]: -41%

CON=C(C)c1ccc(OCCCc2c[nH]cn2)cc1 [Example 93, (4-(3-(1H-Imidazol-4-yl)propyloxy)phenyl)ethanone O-methyloxime]
Ki (histamine H3 receptor [4]): 25 nM

CCC(C)(C)NC(=O)OCCCc1c[nH]cn1 [Example 110, 3-(1H-Imidazol-4-yl)propyl N-(2-methyl-2-butyl)carbamate]
functional class at the histamine H3 receptors (agonists) (histamine H3 receptor [2]; in words): agonists or partial agonists

O=C(NC(c1ccccc1)c1ccccc1)OCCCc1c[nH]cn1 [Example 2, 3-(1H-Imidazol-4-yl)propyl-N-(diphenylmethyl) carbamate]
behaviour in vitro at the H3 receptor (histamine H3 receptor [2]; in vitro, in words): behaves essentially as an antagonist
Emax (histamine H3 receptor [2]; in vitro): ~20%
EC50 (histamine H3 receptor [2]): 100 nM
Change in the level of cerebral tele-methylhistamine (relative to controls) [3]: -30%
response in the tele-methylhistamine test compared with (R)-α-methylhistamine ([3]; in vivo, in words): a response akin to that of (R)-α-methylhistamine
response in the capsaicin-induced plasma extravasation test compared with (R)-α-methylhistamine (plasma extravasation): a response akin to that of (R)-α-methylhistamine

CC(=O)c1ccc(OCCCc2c[nH]cn2)cc1 [Example 78, (4-(3-(1H-Imidazol-4-yl)propyloxy)phenyl)ethanone]
change in vivo at 10 mg/kg [1, 5]: 68%

CCCCCNC(=O)OCCCc1c[nH]cn1 [Example 30, 3-(1H-Imidazol-4-yl)propyl-N-pentyl carbamate]
change in vivo at 10 mg/kg [1, 5]: 67%

CC(=O)c1cccc(SCCc2c[nH]cn2)c1.O=C(O)C(=O)O [Example 157, 4-[2-(3-Ethanoylphenylthio)ethyl]-1H-imidazole oxalate]
Change in the level of cerebral tele-methylhistamine (relative to controls) [3]: -38%

Cc1nc(-c2ccc(OCCCc3c[nH]cn3)cc2)no1 [Example 149, 3-(1H-Imidazol-4-yl)propyl 4-(5-methyl-1,2,4-oxadiazol-3-yl)phenyl ether]
Ki (histamine H3 receptor [4]): 44 nM

c1nc(CCCOc2ccc3c(c2)CCCC3)c[nH]1 [Example 21, 4-[3-(1,2,3,4-Tetrahydro-6-naphthyloxy)propyl]-1H-imidazole]
Ki (histamine H3 receptor [4]): 45 nM
change in vivo at 10 mg/kg [1, 5]: 79%

CC(C)CCOCCCc1c[nH]cn1 [Example 5, 3-(1H-Imidazol-4-yl)propyl 3-methylbutyl ether]
Emax (histamine H3 receptor [2]; in vitro): 20%
EC50 (histamine H3 receptor [2]): 130 nM
Change in the level of cerebral tele-methylhistamine (relative to controls) [3]: -52%

O=C(c1ccc(OCCCc2c[nH]cn2)cc1)C1CC1 [Example 81, Cyclopropyl 4-(3-(1H-imidazol-4-yl)propyloxy)phenyl ketone]
change in vivo at 10 mg/kg [1]: 72%

CCCC(=NO)c1ccc(OCCCc2c[nH]cn2)cc1 [Example 140, (4-(3-(1H-Imidazol-4-yl)propyloxy)phenyl)butanone oxime]
change in vivo at 10 mg/kg [1, 5]: 84%

C=CCNC(=O)OCCCc1c[nH]cn1 [Example 112, 3-(1H-Imidazol-4-yl)propyl-N-(2-propenyl) carbamate]
change in vivo at 10 mg/kg [1, 5]: 98%

c1ccc2cc(COCCCc3c[nH]cn3)ccc2c1 [Example 56, 3-(1H-Imidazol-4-yl)propyl 2-naphthylmethyl ether]
Ki (histamine H3 receptor [4]): 22 nM
